Measured values: ChEMBL document CHEMBL6153167, “Development of the Pyrido[2,3-d]pyrimidin-7(8H)-one Scaffold toward Potent and Selective NUAK1 Inhibitors” (ACS Med Chem Lett, 2025)

Legend:
[1] = Protein binding in mouse plasma assessed as fraction unbound at 10 uM incubated for 6 hrs with rotation by dialysis based LC-MS/MS analysis; assay type: ADME, cell-free
[2] = Unbound brain-to-plasma concentration ratio (Kp,uu, brain) in ICR mouse at 2.5 mg/kg, iv and measured upto 6 hrs by LC-MS/MS analysis; assay type: ADME, organism-based; details: read-out: K(p,uu,brain)
[3] = Selectivity ratio of IC50 for inhibition of MARK3 (unknown origin) to IC50 for inhibition of NUAK1 (unknown origin)

Structure (SMILES): CN1CCN(c2ccc(Nc3ncc4cc(C#N)c(=O)n(C5CCCC5)c4n3)cc2)CC1 [NARAZACICLIB]
- fraction unbound at 6 h, 10 µM [1]: 0.006
- Kp uu at 6 h [2]: 0.036

Structure (SMILES): CN1C2CC1CN(c1ccc(Nc3ncc4ccn(CC5CCOCC5)c4n3)cc1)C2
- Ratio IC50 [3]: 2000

Structure (SMILES): CC(C)N1CCN(c2ccc(Nc3ncc4ccn(CC5CCOC(C)(C)C5)c4n3)cc2)CC1 (stereo not given)
- Ratio IC50 [3]: 2290

Structure (SMILES): Cc1cc(=O)n(C2CCCC2)c2nc(Nc3ccc(N4CCNCC4)cc3)ncc12
- Ratio IC50 [3]: > 11
